Patent US11517600B2, “Use of Crassocephalum rabens extract in the treatment of breast cancer” (ACADEMIA SINICA, priority 2018, dated 2022)

Legend:
[1] = tested on: 4T1 (murine TNBC) orthotopic tumor; assay: 4T1 orthotopic breast cancer model: tumor growth and survival; type: in vivo, mice; conditions: for tumor volume compared with the tumor control: Dox 5 mg/kg every 3 days i.v. (P<0.0001), Dox5+dLGG5 (P=0.0015), dLGG 25 mg/kg daily o.p. (P=0.0015); for reduced tumor volumes compared with the tumor control group: endpoint day 30
Description: Female BALB/cByJNar1 mice (4-week-old) were supplied from National Laboratory Animal Center, Taipei, Taiwan and given a standard laboratory diet and distilled water ad libitum and kept on a 12-h light/dark cycle at 22±2° C. This study was conducted according to the institutional guidelines and approved by the Institutional Animal Care and Utilization Committee (IACUC) of Academia Sinica, Taiwan.
(§1) The therapeutic effects of dLGG or dLGG-enriched CR-API fractions from C. rabens against TNBC were evaluated using an orthotopic tumor model. Briefly, mice were subcutaneously injected with 4T1 (murine TNBC) cells (5×10^6 cells per 100 μl PBS and 50 μl matrigel per mouse) into the fourth mammary fat pad under isoflurane anaesthesia. Tumor growth and body weight are monitored daily. After tumors grow to an approximate size of 150 mm^3 at day 7 post implantation, test mice are randomized into different groups (8 mice per group) and subjected to a three-week compound treatment scheme (FIG. 2). […] Dosage and frequency of doxorubicin treatment is based on maximum tolerable dose determined from in house toxicity experiments within the concentration range commonly used in animal studies (Bao L, Haque A, Jackson K, et al. (2011) Increased Expression of P-Glycoprotein Is Associated with Doxorubicin Chemoresistance in the Metastatic 4T1 Breast Cancer Model. The American Journal of Pathology. 2011; 178 (2):838-852). Effects of drug/compound/extracts are evaluated thrice a week by monitoring tumor size and body weight. Euthanasia by cervical dislocation are performed at day 30 post tumor implantation. Tumors, organ tissues (lungs, liver, kidneys, spleen) and serum were immediately collected and allocated either for western blotting (immediately flash frozen using N2 and stored at −80° C.) or for paraffin fixation (immediately soaked in 10% formalin solution for at least one week). Paraffin-embedded tissues were stored at room temperature.

[2] = Body weight of tumor-implanted mice; type: in vivo
Description: as §1, with “Tumors, organ tissues (lungs, liver, kidneys, spleen) and serum were immediately collected and allocated either for western blotting (immediately flash frozen using N2 and stored at −80° C.) or for paraffin fixation (immediately soaked in 10% formalin solution for at least one week). Paraffin-embedded tissues were stored at room temperature.” left out

cleaved caspase-3 = assay: IHC of cleaved caspase-3 in tumor tissues; type: in vivo, mice; conditions: for caspase-3 expression compared with the low dose treatments and the Dox5+dLGG5 combination: day 30, Dox 5 mg/kg i.v., CR-API 400 mg/kg, dLGG 25 mg/kg daily o.p.; for cleaved caspase-3 expression in tumor tissues compared with the vehicle control: day 30, all treatment groups
Description: as §1
(§2) Tumor and organ tissues were fixed in 10% buffered formalin and embedded in paraffin. Paraffin-embedded samples were sectioned (6 μm) and underwent hemotoxylin and eosin (H&E) or immunohistochemical (IHC) staining. Paraffin-embedded tissue sections were heat immobilized and deparaffinized using xylene and rehydrated in a graded series of ethanol with a final wash in distilled water. For antigen retrieval, citrate retrieval buffer and Decloaking Chamber (Biocare Medical) were used. Images were captured using AxioVision software (Carl Zeiss MicroImaging, Inc.).

[3] = tested on: TNBC metastatic tumor nodules in lung; assay: Distal metastasis to the lungs (H&E, Ki-67 IHC); type: in vivo, mice; conditions: for tumor metastasis nodules in the lung tissues: day 30, all dose groups (dLGG5, dLGG25, CR-API200, CR-API400, Dox5, Dox5+dLGG5) vs tumor control
Description: as §1, §2

[4] = tested on: TNBC metastatic tumor nodules in liver; assay: Distal metastasis to the liver (H&E, Ki-67 IHC); type: in vivo, mice; conditions: day 30; all dose groups (dLGG5, dLGG25, CR-API200, CR-API400, Dox5, Dox5+dLGG5) vs tumor control
Description: as §1, with “Tumors, organ tissues (lungs, liver, kidneys, spleen) and serum were immediately collected and allocated either for western blotting (immediately flash frozen using N2 and stored at −80° C.) or for paraffin fixation (immediately soaked in 10% formalin solution for at least one week). Paraffin-embedded tissues were stored at room temperature.” left out

COX-2 [5] = assay: IHC of COX-2 in liver and lung tissues; type: in vivo, mice; conditions: day 30, dLGG 5 and 25, CR-API 200 and 400 mg/kg daily o.p., Dox 5 mg/kg every 3 days i.v., Dox5+dLGG5
Description: as §1, with “Tumors, organ tissues (lungs, liver, kidneys, spleen) and serum were immediately collected and allocated either for western blotting (immediately flash frozen using N2 and stored at −80° C.) or for paraffin fixation (immediately soaked in 10% formalin solution for at least one week). Paraffin-embedded tissues were stored at room temperature.” left out

Cav-1 = assay: Western blot of tumor tissues, Cav-1; type: in vivo, mice; conditions: high dose dLGG (25 mg/kg), Dox5, Dox5+dLGG5
Description: as §1, with “Tumors, organ tissues (lungs, liver, kidneys, spleen) and serum were immediately collected and allocated either for western blotting (immediately flash frozen using N2 and stored at −80° C.) or for paraffin fixation (immediately soaked in 10% formalin solution for at least one week). Paraffin-embedded tissues were stored at room temperature.” left out

Rac1 = assay: Western blot of tumor tissues, Rac1; type: in vivo, mice; conditions: high dose dLGG (25 mg/kg), Dox5, Dox5+dLGG5
Description: as §1, with “Tumors, organ tissues (lungs, liver, kidneys, spleen) and serum were immediately collected and allocated either for western blotting (immediately flash frozen using N2 and stored at −80° C.) or for paraffin fixation (immediately soaked in 10% formalin solution for at least one week). Paraffin-embedded tissues were stored at room temperature.” left out

Src (p-Src^419) = assay: Western blot of tumor tissues, Src activation; type: in vivo, mice; conditions: all dLGG and CR-API treatments, Dox5+dLGG5, Dox5
Description: as §1, with “Tumors, organ tissues (lungs, liver, kidneys, spleen) and serum were immediately collected and allocated either for western blotting (immediately flash frozen using N2 and stored at −80° C.) or for paraffin fixation (immediately soaked in 10% formalin solution for at least one week). Paraffin-embedded tissues were stored at room temperature.” left out

FAK = assay: Western blot of tumor tissues, FAK phosphorylation; type: in vivo, mice; conditions: high dose dLGG (25 mg/kg), high dose CR-API (400 mg/kg), Dox5, Dox5+dLGG5
Description: as §1, with “Tumors, organ tissues (lungs, liver, kidneys, spleen) and serum were immediately collected and allocated either for western blotting (immediately flash frozen using N2 and stored at −80° C.) or for paraffin fixation (immediately soaked in 10% formalin solution for at least one week). Paraffin-embedded tissues were stored at room temperature.” left out

[6] = tested on: MDA-MB-231 (ER−, PR− and Her2− TNBC cells); assay: MTT cell viability assay, MDA-MB-231; type: cell-based; conditions: human derived TNBC cells, 24 hours
Description: (§3) Immortalized normal human mammary epithelial cells (MCF10A) and breast cancer cell lines including HER2+ (SKBR3), ER+ (MCF7), triple negative (MDA-MB-231), and murine TNBC cell line 4T1 were obtained from the ATCC (USA). Cells were expanded and frozen at low passage after the receipt of the original stocks. Cells were thawed and used within 15 passages.
(§4) Cells (3×10^3 cells/well) were seeded in 96-well plates overnight and treated for 24 hours. Cell growth was determined by MTT-based colorimetric assay. Viability of the cells treated with vehicle-only (0.5% DMSO) was defined as 100% viability. Cell survival after compound treatment was calculated using the following formula: viable cell number (%)=[OD570 (treated cells)/OD570 (vehicle control)]×100.

4T1 TNBC cells = assay: MTT cell viability assay, 4T1; type: cell-based; conditions: Mus musculus, murine derived TNBC cells 4T1, 24 hours
Description: as §3, §4

[7] = tested on: MCF7 (ER+ breast cancer cells); assay: MTT cell viability assay, MCF7; type: cell-based; conditions: Homo sapiens; MCF7, 24 hours, tested concentration range 5-100 μM
Description: as §3, §4

[8] = tested on: SKBR3 (Her2+ breast cancer cells); assay: MTT cell viability assay, SKBR3; type: cell-based; conditions: Homo sapiens, SK-BR-3; SKBR3, 24 hours, tested concentration range 5-100 μM
Description: as §3, §4

[9] = tested on: MCF10A (normal mammary epithelial cells); assay: MTT cell viability assay, MCF10A; type: cell-based, human; conditions: 24 h treatment
Description: as §3, §4

Ki67 = assay: IHC of Ki67 in tumor tissues; type: in vivo, mice; conditions: day 30, dLGG and CR-API regardless of dose, Dox5, Dox5+dLGG5, vs tumor control
Description: as §1, with “Tumors, organ tissues (lungs, liver, kidneys, spleen) and serum were immediately collected and allocated either for western blotting (immediately flash frozen using N2 and stored at −80° C.) or for paraffin fixation (immediately soaked in 10% formalin solution for at least one week). Paraffin-embedded tissues were stored at room temperature.” left out

CYP2C19 = assay: Western blot of tumor tissues, CYP2C19; type: in vivo, mice; conditions: all dLGG and CR-API groups, Dox5+dLGG5 compared with Dox5 alone
Description: as §1, with “Tumors, organ tissues (lungs, liver, kidneys, spleen) and serum were immediately collected and allocated either for western blotting (immediately flash frozen using N2 and stored at −80° C.) or for paraffin fixation (immediately soaked in 10% formalin solution for at least one week). Paraffin-embedded tissues were stored at room temperature.” left out

COX-2 [10] = assay: Western blot of tumor tissues, COX-2; type: in vivo, mice; conditions: all dLGG and CR-API groups, Dox5+dLGG5 compared with Dox5 alone
Description: as §1, with “Tumors, organ tissues (lungs, liver, kidneys, spleen) and serum were immediately collected and allocated either for western blotting (immediately flash frozen using N2 and stored at −80° C.) or for paraffin fixation (immediately soaked in 10% formalin solution for at least one week). Paraffin-embedded tissues were stored at room temperature.” left out

[11] = dLGG 25 mg/kg, CR-API 400 mg/kg daily o.p., Dox 5 mg/kg every 3 days i.v., Dox5+dLGG5

| SMILES | tumor volume compared with the tumor control ([1]; day 30) | caspase-3 expression compared with the low dose treatments and the Dox5+dLGG5 combination (cleaved caspase-3) | cleaved caspase-3 expression in tumor tissues compared with the vehicle control (cleaved caspase-3) | metastatic tumor nodules in lung (H&E) [3, 11] | tumor metastasis nodules in the lung tissues [3] | tumor metastasis nodules in the liver tissues [4] | COX-2 expression in liver and lung tissues (COX-2 [5]) | Cav-1 expression level in tumor tissues (Cav-1) | Rac1 expression level in tumor tissues (Rac1) | activation of Src (p-Src^419) in tumor tissues compared with the tumor control (Src (p-Src^419)) | phosphorylation of FAK in tumor tissues (FAK) | also measured |
| --- | --- | --- | --- | --- | --- | --- | --- | --- | --- | --- | --- | --- |
| COc1cccc2c1C(=O)c1c(O)c3c(c(O)c1C2=O)C[C@@](O)(C(=O)CO)C[C@@H]3O[C@H]1C[C@H](N)[C@H](O)[C@H](C)O1 [Dox, doxorubicin, reference compound] | significant tumor volume reduction | higher caspase-3 expression | increased expression of cleaved caspase-3 | not detectable | less compared with the tumor control group | less compared with the tumor control group | further induce COX-2 expression | decreased significantly | decreased significantly | much less or no effect at all | significantly inhibited | reduction in tumor weight ([1]; Dox5: 5 mg/kg every 3 days i.v., day 30, P<0.05): 60%; loss of weight ([2]; Dox5: 5 mg/kg every 3 days i.v., day 30): 10 % of starting body weights |
| CC/C=C\C/C=C\C/C=C\CCCCCCCC(=O)OC[C@H](CO[C@@H]1O[C@H](CO)[C@H](O)[C@H](O)[C@H]1O)OC(=O)CCCCCCC/C=C\C/C=C\C/C=C\CC [dLGG, 1,2-di-O-α-linolenoyl-3-O-β-galactopyranosyl-sn-glycerol] | significant tumor volume reduction | higher caspase-3 expression | increased expression of cleaved caspase-3 | not detectable | less compared with the tumor control group | less compared with the tumor control group | decreased in a dose-dependent manner | decreased significantly | decreased significantly | significantly inhibited | significantly inhibited | IC50 [6]: 55 µM; IC50 (4T1 TNBC cells): 55 µM; IC50 [7]: > 100 µM; IC50 [8]: > 100 µM; cell survival [9]: no significant change in cell survival; survival ([1]; dLGG5: 5 mg/kg daily o.p., day 30): 100%; reduced tumor volumes compared with the tumor control group ([1]; dLGG5: 5 mg/kg daily o.p., P<0.05): 18%; survival ([1]; dLGG25: 25 mg/kg daily o.p., day 30): 100%; reduced tumor volumes compared with the tumor control group ([1]; dLGG25: 25 mg/kg daily o.p., P<0.05): 47%; weight loss ([2]; dLGG 5 and 25 mg/kg, CR-API 200 and 400 mg/kg daily o.p., given alone): No significant weight loss; Ki-67 overexpression in tumor tissues (Ki67): attenuated; metastatic tumor nodules in lung (H&E) ([3]; low dose: dLGG 5 mg/kg, CR-API 200 mg/kg daily o.p.): visible; CYP2C19 expression level in tumor tissues (CYP2C19): dose dependent effect on attenuating the expression levels; COX-2 expression level in tumor tissues (COX-2 [10]): dose dependent effect on attenuating the expression levels |
